Marks after values point to notes of the source that are not given here.
Test: Particle size distribution (Sympatec HELOS, dry dispersion)
Format: physicochemical
Procedure: Particle Size Distribution:
• Sympatec HELOS (H0445), dry dispersion system (RODOS), pressure 2 bar Content Uniformity Test: • Content Determination according to USP/Ph. Eur. for individual capsules after elution through HPLC with external calibration • Column: LiChrosphere 5μ RP-18 encapped, 150×3 mm • Eluent: acetonitrile/water=45/55 • Flow: 1 ml/min • Detection UV (272 nm) Active Ingredient Release: • Active ingredient release measured in 1000 mL water with 0.3% sodium dodecyl sulfate, 100 rpm • Content Determination y HPLC with external calibration • Column: LiChrosphere 5μ RP-18 encapped, 150×3 mm • Eluent: acetonitrile/water=45/55 • Flow: 1 ml/min • Detection UV (272 nm)

[1] = Example 1 microcrystals, ethyl acetate, three cycles 55/20° C., air dried
[2] = after drying on filter (ethyl acetate suspension)
[3] = after spray-drying (ethanol/water suspension)
[4] = suspension in ethanol/water (90/10) with 10% by weight microcrystalline J956, before drying
[5] = suspension in ethyl acetate with 14% by weight microcrystalline J956, before drying

CCNC(=O)ON=Cc1ccc(C2CC3(C)C(CCC3(COC)OC)C3CCC4=CC(=O)CCC4=C23)cc1 (stereo not drawn) [J956, 11β-{4-[(ethylaminocarbonyl)oximinomethyl]phenyl}-17β-methoxy-17α-methoxymethyl-estra-4,9-dien-3-one]
Particle size X10 [1]: 2.62 μm | Particle size X50 [1]: 10.4 μm | Particle size X10 [2]: 2.7 μm | Particle size X50 [2]: 10.61 μm | Particle size X90 [2]: 24 μm | Particle size X10 [3]: 2.25 μm | Particle size X50 [3]: 8.03 μm | Particle size X90 [3]: 17 μm | Particle size X100 [3]: 43 μm | Particle size X10 [4]: 2.11 μm | Particle size X50 [4]: 8.6 μm | Particle size X90 [4]: 19 μm | Particle size X100 [4]: 51 μm | Particle size X10 [5]: 2.62*** μm | Particle size X50 [5]: 10.4 μm | Particle size X90 [5]: 24 μm
